Molecules are shown by their SMILES.

Assay [1] concerns the target T1, 6xHis-CaTps1 (Candida albicans, UniProt Q92410).
T1 construct: Briefly, the full-length; thrombin cleavage site (pET-28a linker) (N); made in house; host or cells: E. coli BL21(DE3)pLysS
T1 sequence (Q92410 1-478): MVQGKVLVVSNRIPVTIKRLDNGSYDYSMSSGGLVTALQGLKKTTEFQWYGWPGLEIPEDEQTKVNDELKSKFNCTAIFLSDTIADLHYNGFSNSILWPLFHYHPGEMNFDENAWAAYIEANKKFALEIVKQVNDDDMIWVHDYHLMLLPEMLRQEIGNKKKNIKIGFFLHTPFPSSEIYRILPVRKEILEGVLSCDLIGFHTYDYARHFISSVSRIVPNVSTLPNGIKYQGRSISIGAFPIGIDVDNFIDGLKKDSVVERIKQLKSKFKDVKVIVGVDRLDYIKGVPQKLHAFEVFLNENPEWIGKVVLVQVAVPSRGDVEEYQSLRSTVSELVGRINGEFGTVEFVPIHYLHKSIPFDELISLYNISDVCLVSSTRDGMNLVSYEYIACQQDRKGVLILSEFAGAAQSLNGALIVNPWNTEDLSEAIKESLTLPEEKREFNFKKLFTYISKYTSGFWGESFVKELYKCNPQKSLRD
Nature of the assay: Microscale thermophoresis (MST). Conditions: label-free MST, one-site binding model, n = 3, SD. As for the experimental part: (§1) Fig 2 4456dh binds Tps1 and inhibits Tps1 activity. (A) Structure of 4456dh. (B and C) Glo-melt thermal shift assays reveal 4456dh destabilizes 6xHis-CaTps1 (B) and 6xHis-CnTps1 (C). The first derivative of the raw data was used to determine the melting temperature of 1 µM 6xHis-CaTps1 (B) and 1 µM 6xHis-CnTps1 (C) treated without (black) or with 2 mM 4456dh (red). […] The resulting dose-response curves were fitted to a one-site binding model to extract Kd values; the SD was calculated using the Kd values from each independent experiment (n = 3). (F) Tps1 enzyme activity assay with 5 µM 6xHis-CaTps1 (F) and 6xHis-CnTps1 (G) ±1 mM 4456dh. Error bars represent SE. […]
(§2) Given the intrinsic fluorescence of CaTps1 and CnTps1, we were able to detect binding without the use of additional fluorophores. […]
(§3) 82 determined by SDS-PAGE analysis, were pooled and concentrated to 1 mg/mL for downstream […]
(§4) 93 The data were acquired with MO.Control 1.5.3 (NanoTemper Technologies GmbH). Recorded
(§5) 94 data were analyzed with MO.Affinity Analysis 2.2.7 (NanoTemper Technologies GmbH). […]
(§6) 100 2X Glo-melt dye. Thermal denaturation was measured using an RT-PCR thermocycler (BioRad) […]
(§7) 102 determined by identifying the inflection point of the derivative data. […]
(§8) 104 The catalytic activity of C. albicans Tps1 and C. neoformans Tps1 was measured via a continuous […]
(§9) 111 reaction rate was recorded using a plate reader (Tecan). […]

The target of assay [2] is 6xHis-CnTps1 (Cryptococcus neoformans var. grubii, UniProt J9VJZ1). As to the kind of experiment: Microscale thermophoresis (MST). Conditions: label-free MST, one-site binding model, n = 3, SD. The procedure: as §1, §2, §3, §4, §5, §6, §7, §8, §9
6xHis-CnTps1, sequence (J9VJZ1 entry or part of it): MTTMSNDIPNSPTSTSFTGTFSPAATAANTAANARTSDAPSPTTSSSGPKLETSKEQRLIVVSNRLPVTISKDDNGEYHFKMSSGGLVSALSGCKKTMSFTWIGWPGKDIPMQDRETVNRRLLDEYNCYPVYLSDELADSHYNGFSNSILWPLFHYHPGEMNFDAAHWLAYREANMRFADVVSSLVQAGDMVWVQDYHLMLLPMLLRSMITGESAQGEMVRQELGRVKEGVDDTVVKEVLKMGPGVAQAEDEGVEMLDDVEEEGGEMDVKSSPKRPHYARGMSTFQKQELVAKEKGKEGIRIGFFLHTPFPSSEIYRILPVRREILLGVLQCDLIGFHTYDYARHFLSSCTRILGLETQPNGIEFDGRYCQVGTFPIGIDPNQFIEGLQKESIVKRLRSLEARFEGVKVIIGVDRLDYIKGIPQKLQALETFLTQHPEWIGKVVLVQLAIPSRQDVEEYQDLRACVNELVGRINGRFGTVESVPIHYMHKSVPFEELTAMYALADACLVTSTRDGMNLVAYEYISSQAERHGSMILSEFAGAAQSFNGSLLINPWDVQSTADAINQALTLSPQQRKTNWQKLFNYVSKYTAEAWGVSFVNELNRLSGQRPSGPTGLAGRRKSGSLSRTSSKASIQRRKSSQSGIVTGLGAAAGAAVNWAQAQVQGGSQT
In general terms: In MST a laser heats a spot of the sample, and binding alters the fluorescence response.

In the case of `Cn1cc(-c2csc(NC(=O)Cc3ccccn3)n2)cn1` [Compound 4456dh], the dissociation constant Kd came to 7.1 µM in assay [1] and 33.4 µM in assay [2].

By Kd is commonly meant the concentration at which binding is half-saturated. Lower therefore signals tighter binding.

The record behind these values is PMC12505902, “Inhibitors of trehalose-6-phosphate synthase activity in fungal pathogens compromise thermal tolerance pathways” (mBio, 2025).
